This test deals with T1, norepinephrine transporter (NET) (Homo sapiens, UniProt P23975).
T1 construct: gene SLC6A2
As to the kind of experiment: competitive inhibition of […]AF78 uptake in SK-N-SH cells ([…] against […]MIBG). Type of test: cell-based.

T1 sequence (P23975 whole entry): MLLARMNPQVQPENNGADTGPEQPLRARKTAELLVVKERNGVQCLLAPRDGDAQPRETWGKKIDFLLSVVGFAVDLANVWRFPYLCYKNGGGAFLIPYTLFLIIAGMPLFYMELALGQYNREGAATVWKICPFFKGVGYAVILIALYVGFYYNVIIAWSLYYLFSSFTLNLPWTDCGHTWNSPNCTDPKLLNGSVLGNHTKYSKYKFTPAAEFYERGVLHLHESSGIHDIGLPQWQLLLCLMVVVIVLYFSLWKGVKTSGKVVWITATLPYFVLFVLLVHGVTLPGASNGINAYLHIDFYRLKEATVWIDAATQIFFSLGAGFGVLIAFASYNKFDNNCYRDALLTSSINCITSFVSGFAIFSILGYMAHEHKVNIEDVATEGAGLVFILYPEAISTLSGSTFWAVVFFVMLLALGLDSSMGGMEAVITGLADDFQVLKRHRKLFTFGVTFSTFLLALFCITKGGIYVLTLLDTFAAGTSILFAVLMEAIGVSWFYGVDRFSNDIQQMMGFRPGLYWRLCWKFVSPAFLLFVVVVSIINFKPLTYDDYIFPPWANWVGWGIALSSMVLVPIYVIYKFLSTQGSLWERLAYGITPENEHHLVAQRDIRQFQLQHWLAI

`N=C(N)NCCc1ccc(F)c(O)c1` [4F-MHPG, 4-[^18F]fluoro-3-hydroxyphenethylguanidine] registered an IC50 of 850 ± 630 nM.

(Values after article PMC7250802, “Initial Evaluation of AF78: a Rationally Designed Fluorine-18-Labelled PET Radiotracer Targeting Norepinephrine Transporter” (Molecular Imaging and Biology, 2019).)
